According to patent US20160067221A1, “USE OF ERGOTHIONEINE FOR INDUCING ACTIVITY OF NRF2 IN CELL” (China Medical University, priority 2014, published 2016):

Legend:
Type in all cases: cell-based, human
[1] = test system: UVA-irradiated HaCaT cells; assay: Intracellular ROS generation (HDCF-DA / DCF fluorescence)
Method: An exposure of the UVA will stimulate cells generating ROS. […] The HDCF-DA is a lipid-soluble fluorescent dye and has a cell membrane permeability. The HDCF-DA will bind to intracellular esterases to form a non-fluorescent 2′,7′-dichlorofluorescin (DCFH). The DCFH is subsequently oxidated by H2O2 to form a fluorescent 2′,7′-dichlorofluorescein (DCF), and then accumulated in a mitochondria. […] The HaCaT cells are subsequently incubated with or without the ergothioneine, and then maintained at 37° C. in a humidified atmosphere of 5% CO2 for 24 hours, wherein the concentration of the ergothioneine is 500 nM. Next, the HaCaT cells are washed with PBS three times, and then irradiated with the UVA (15 J/cm^2). After the UVA irradiation, the PBS is replaced with 1 mL of HDCF-DA (10 μM) in each well to react at 37° C. in the dark for 30 minutes. After the reaction, the fluorescent dye is removed, and the HaCaT cells are washed with PBS thrice to remove the remaining fluorescent dye. The intracellular ROS, as indicated by DCF fluorescence, is measured with the fluorescence microscope and photographed.

[2] = test system: UVA-irradiated HaCaT cells; assay: LDH release (UVA-induced cell membrane damage); conditions: 125, 250, 500 nM 24 hours, then 15 J/cm^2 UVA, 4 hours
Method: Under normal physiological condition, a lactate dehydrogenase (LDH) is presented in the cytoplasm. The cell membranes are damaged or disrupted when the cells are attacked by excessive ROS. Accordingly, the intracellular LDH releases into the culture medium. Therefore, a detection amount of LDH release is an indicator of a cell membrane damaged condition. The HaCaT cells are seeded in a 12-well plate with 1×10^5 cells/well and then maintained at 37° C. in the humidified atmosphere of 5% CO2 until the HaCaT cells are adhered in the next day. […] After incubation, the HaCaT cells are washed with PBS three times and resuspended in fresh phenol red-free DMEM supplemented with 10% FBS. Then, the HaCaT cells are exposed to the UVA (15 J/cm^2) for 4 hours. The culture medium is taken from the well, and then centrifuged at 400×g for 5 minutes by using a high speed centrifuge. After the centrifugation, 50 μL of the supernatant is taken and added into the 96-well microplate, and the 50 μL of a substrate mixture is added in each well to act at room temperature for 20 minutes in the dark. Then, 50 μl. of a stopping solution (1N HCl) is added in each well to stop the reaction, and then the absorbance at 490 nm is measured.

Nrf2 [3] = assay: Western blot of Nrf2 signaling pathway associated proteins (Nrf2, Keap-1, HO-1, NQO-1, γ-GCLC)
Method: The effect of the ergothioneine on expressions of Nrf2 protein and downstream proteins of the HaCaT cells is monitored by the Western blot analysis. The detected downstream proteins are heme oxygenase-1 (HO-1) γ-glutamylcysteine ligase catalytic subunit (γ-GCLC) and NAD(P)H: quinone acceptor oxidoreductase 1 (NQO-1). The HaCaT cells are incubated with or without the ergothioneine for 1 hour or 4 hours, wherein the concentration of the ergothioneine is 125 nM, 250 nM and 500 nM, respectively. After incubation, the HaCaT cells are suspended in a lysis buffer to collect the proteins. FIG. 7 illustrates the effect of the ergothioneine on the expressions of the Nrf2 signaling pathway associated proteins of the HaCaT cells.
In addition, we examine the effect of the ergothioneine on the expressions of the Nrf2 and the Nrf2 pathway associated proteins of the HaCaT cells treated with the UVA irradiation. The HaCaT cells are incubated with or without the ergothioneine for 24 hours, wherein the concentration of the ergothioneine is 125 nM, 250 nM and 500 nM, respectively. After incubation, the HaCaT cells are exposed to the UVA (15 J/cm^2), and then cultured for 1 hour or 4 hours. Next, the HaCaT cells are suspended in the lysis buffer to collect the proteins, and the protein expressions are measured by the Western blot analysis. FIG. 8 illustrates the effect of the ergothioneine on the expressions of the Nrf2 signaling pathway associated proteins of the UVA-irradiated HaCaT cells. FIG. 8-(A) represents the Western blot analysis results of total Nrf2 and Keap-1 protein levels, wherein the HaCaT cells are pretreated with the ergothioneine (125-500 nM), and then exposed to the UVA for 1 hour. FIG. 8-(B) represents the Western blot analysis results of the HO-1 the NQO-1 and the γ-GCLC proteins, wherein the HaCaT cells are pretreated with the ergothioneine (125-500 nM), and then exposed to the UVA for 4 hour.

Nrf2 [4] = assay: Nrf2 nuclear translocation (Western blot of cytosolic and nuclear Nrf2, immunofluorescence staining); conditions: for nuclear Nrf2 protein expression / cytosolic Nrf2 protein expression: Western blot
Method: This example next investigates the effect of the ergothioneine on the Nrf2 nuclear translocation. The HaCat cells are pretreated with the ergothioneine for 24 hours, and then exposed to 15 J/cm^2 UVA for 1 hour. The protein expressions of a cytosolic Nrf2 and a nuclear Nrf2 are detected by the Western blot analysis, and a nuclear import of Nrf2 of the HaCaT cell is monitored by an immunofluorescence staining.
FIG. 9 illustrates the effect of the ergothioneine on the protein expressions of the cytosolic Nrf2 and the nuclear Nrf2 of the UVA-irradiated HaCaT cells. FIG. 9-(A) represents the Western blot analysis result. FIG. 9-(B) is the fluorescent photomicrograph of the immunofluorescence staining (200× magnifications). […] In FIG. 9-(B), the nucleus is labelled with 4′,6-diamidino-2-phenylindole (DAPI), and the Nrf2 is labelled with green fluorescence to measure the expression and a localization of the Nrf2.

[5] = 125-500 nM 24 hours pretreatment, UVA 15 J/cm^2, 4 hours
[6] = ergothioneine alone, vs control

## C[N+](C)(C)[C@@H](Cc1c[nH]c(=S)[nH]1)C(=O)[O-] [ergothioneine, 2-mercapto histidine trimethylbetain]
[1]; 500 nM 24 hours prior to 15 J/cm^2 UVA
  DCF fluorescence (UVA-induced ROS generation): ignificantly decreased
[1]; 500 nM alone, no UVA
  ROS generation: non-effect
[2]
  LDH release: inhibits the LDH release in a dose-dependent manner
Nrf2 [3]; 125-500 nM 24 hours pretreatment, UVA 15 J/cm^2, 1 hour
  Nrf2 expression (Nrf2/Keap-1 ratio): dramatically increases the Nrf2 expression
Nrf2 [3]; [5]
  expression of HO-1 protein: also increased
  expression of NQO-1 protein: also increased
  expression of γ-GCLC protein: also increased
Nrf2 [3]; 125-500 nM for 1 hour, no UVA, especially with 500 nM
  total Nrf2 protein level: increases the total Nrf2 protein level
Nrf2 [3]; 125-500 nM for 4 hours, no UVA
  expression of HO-1 protein: also increased
  expression of NQO-1 protein: also increased
  expression of γ-GCLC protein: also increased
Nrf2 [4]; ergothioneine 24 hours prior to 15 J/cm^2 UVA, 1 hour
  nuclear Nrf2 protein expression: significantly increased
Nrf2 [4]; ergothioneine alone, immunofluorescence staining
  fluorescence intensity of the Nrf2: slightly increased
Nrf2 [4]; [6]
  cytosolic Nrf2 protein expression: significantly decreased
  nuclear Nrf2 protein expression: slightly increased
Nrf2 [4]; ergothioneine prior to UVA irradiation, immunofluorescence staining
  fluorescence intensity of the nuclear Nrf2: pronounced fluorescence intensity of the nuclear Nrf2
Nrf2 [4]; ergothioneine prior to UVA irradiation, vs control
  cytosolic Nrf2 protein expression: significantly decreased
